Here are results for one molecule from patent US12090164B2, “Genotype-agnostic rescue of cystic fibrosis with small molecule bicarbonate channels” (The Board of Trustees of the University of Illinois, priority 2017, dated 2024).

Entries after “also recorded” stand apart in the source; their conditions may differ.

The subject of data set [1] is NuLi (CFTR^+/+) epithelia. In words: ASL pH in non-CF cultured airway epithelia. In kind it is cell-based, human. Conditions: apical AmB 2 μM, 48 h. Here is the method: Small diameter NuLi, CuFi, and primary cultured epithelia were used for this experiment (0.33 cm^2). The ratiometric pH indicator SNARF-conjugated dextran (Molecular Probes) was used to measure ASL pH. SNARF powder was suspended via sonication in perfluorocarbon (FC-72, Sigma) and distributed onto the apical surface. ASL pH was measured 2 hr later (3, 4, 25). SNARF was excited at 488 nm and emission was recorded at 580 nm and 640 nm using a Zeiss LSM 800 microscope at 40× water immersion for cell line cultures and a Zeiss LSM 510 microscope for primary cultures. To generate a standard curve for pH determination, SNARF was dissolved in colorless pH standards and fluorescence ratios were converted to pH.
Agents tested in this assay were first lyophilized into powder and then suspended in the appropriate volume of perfluorocarbon (FC-72, Sigma) and sonicated for 1 minute to suspend. AmBisome should not be sonicated; instead, the fine powder was suspended by vortexing.
In all experiments, ASL pH of compound-treated epithelia was measured compared the results to vehicle-treated epithelia.
For apical AmB administration, cultured airway epithelia were incubated for 30 min-48 hrs at 37° C. before measurement of ASL pH. For AmB-cholesterol complex and C35deOAmB administration, cultured airway epithelia were incubated for 48 hrs at 37° C. before measurement of ASL pH. […]

For data set [2], the system named is CuFi-1 epithelial monolayers. In words: pH-stat titration of apical alkalinization. The class given is cell-based, human. The settings on record: AmB 0.5, 1, 2 μM. Here is the method: Large diameter NuLi and CuFi-1 cultured epithelia were used for this experiment (4.67 cm^2). These cultures were mounted in a dual-channel Ussing chamber (Warner U2500) using the culture cup insert for Transwell adapter, 24 mm (U9924T-24). The membranes were bathed at 37° C. on the apical side with a buffer-free solution (140 mM NaCl, 2 mM KCl, 2 mM CaCl2), and 1 mM MgCl2, 15 mM dextrose, gassed with air) and on the basolateral side with either a HCO3^− buffer (120 mM NaCl, 25 mM NaHCO3, 5 mM KCl, 2 mM CaC2, 1.2 mM MgCl2, 13.75 NaH2PO4, 5.6 mM dextrose, pH adjusted to 7.0) or a HCO3^−-free buffer (140 mM NaCl, 2 mM KCl, 2 mM CaCl2), 1 mM MgCl2, 10 mM HEPES, 5 mM dextrose, pH adjusted to 7.0). A microdiameter pH electrode (89231-590) and temperature probe (Radiometer Analytical T201 Temperature Sensor, E51M001) and titration burette attached to a Hach TIM856 NB pH/EP/Stat pH-STAT Titrator (R41T028) were inserted into the apical chamber. The basolateral chamber was covered with the chamber lid to prevent gas exchange. […]
The apical pH was titrated to a target pH of 6.0 using 1 mM HCl as titrant (min speed 0.25 mL/min, max speed 0.35 mL/min) (28, 57-59). Acid titration was measured over 20 minutes to establish a baseline value for the cultured epithelia […]. […] Acid titration was then measured over another 20 minutes to evaluate AmB-mediated pH change in the apical solution. […]

Another data set concerns Staphylococcus aureus. The data set is described as follows: Direct killing of S. aureus by AmB alone. In kind it is cell-based. Conditions: AmB 2 μM alone vs saline. Here is the method:
Staphylococcus aureus-coated gold grids were used to measure antibacterial activity of airway epithelial cultures (3, 4). Small diameter primary cultured epithelia were used for this experiment (0.33 cm^2). Bacteria-coated gold TEM grids were placed onto the apical surface of airway epithelia for 1 min after 48 hours of perfluorocarbon (FC-72, Sigma), 2 μM AmB, or 2 μM C35deOAmB treatment. As controls, bacteria-coated grids were also placed in saline or AmB in FC-72 laid over saline to simulate the administration method for 1 minute. After removal, bacteria on the grids were assessed for viability using Live/Dead BacLight Bacterial Viability assay (Invitrogen). Viability was determined in 4-6 fields to determine the percentages of dead bacteria.

Another data set deals with CuFi-1 epithelia. The data set is described as follows: Transepithelial electrical resistance (Rt). In kind it is cell-based, human. The settings on record: vehicle, 2 uM or 50 uM AmB, extended timeframes. Here is the method: Small diameter CuFi-1 cultured epithelia were used for this experiment (0.33 cm^2) Cultured epithelia were treated with FC-72 vehicle, 2 and 50 μM AmB administered in perfluorocarbon (FC-72, Sigma) for 48 hours, 7 days, or 28 days. 200 μL of fresh USG media was placed on the apical side of the epithelia. Transepithelial electrical resistance (Rt) was then measured using a Millicell® ERS-2 Voltohmmeter across the apical and basolateral sides of the epithelia in a snaking pattern for two technical replicates per biological replicate.

For data set [3] the following is noted: in vivo; cited from earlier work.

`C[C@@H]1[C@H](O)[C@@H](C)/C=C/C=C/C=C/C=C/C=C/C=C/C=C/[C@H](O[C@@H]2O[C@H](C)[C@@H](O)[C@H](N)[C@@H]2O)C[C@@H]2O[C@](O)(C[C@@H](O)C[C@@H](O)[C@H](O)CC[C@@H](O)C[C@@H](O)CC(=O)O[C@H]1C)C[C@H](O)[C@H]2C(=O)O` [AmB, amphotericin B]: the “ASL pH in non-CF epithelia” value in data set [1] is “No increase in ASL pH was observed”. Moreover, in data set [2] (HCO3−-free buffer), the “rate of apical alkalinization, bicarbonate free basolateral buffer” value is given as “no change in rate of apical alkalinization was observed with any tested concentration of AmB; also recorded: not in the absence of basolateral bicarbonate”. Further, the “rate of apical chamber alkalinization, basolateral bicarbonate present” value in data set [2] (basolateral bicarbonate 25 mM) is “increased the rate of apical chamber alkalization of CuFi-1 epithelia in a dose-dependent fashion; also recorded: dose-dependent increase in ASL pH”. Besides, the “direct antibacterial activity against S. aureus” value in the data set on Staphylococcus aureus was “insensitive to direct killing by AmB; also recorded: does not have antibacterial activity against S. aureus”. For the same molecule, the “membrane integrity / transepithelial electrical resistance (Rt)” value with CuFi-1 epithelia was “did not disrupt membrane integrity; also recorded: no difference in transepithelial electrical resistance; also recorded: did not differ between treatment with vehicle or increasing doses of AmB”. In addition, the toxicity to humans entry in data set [3] was “significant toxicity to humans”.
